Experimental data published in paper PMC7822874, “Chemoprotective antimalarials identified through quantitative high-throughput screening of Plasmodium blood and liver stage parasites” (Scientific Reports, 2021).
Where two headings read alike, the source gives them in different places.

Key:
in vitro = conditions: human, HepG2-A16-CD81EGFP cells, uninfected
[1] = system: Plasmodium falciparum Dd2 asexual blood stage parasites; assay: microbe, parasite or virus in culture; design: species or system Plasmodium falciparum Dd2 in human erythrocytes; single determination (one 11-point concentration-response curve); conditions: Plasmodium falciparum, DD2, Erythrocyte, 72 h; read-out: AC50
[2] = system: P. berghei-ANKA-GFP-LucCON liver stage parasites in HepG2-A16-CD81EGFP cells; assay: P. berghei liver stage Pb-Luc assay, Method 1 (UCSD, 1536-well); format: cell-based, Plasmodium berghei; conditions: for activity at 1 µM / activity at 3 µM: Plasmodium berghei, 48 h, average of 2 wells on a 1536 well plate; for activity at 1 µM: 1 uM (compounds provided at 10 mM); for activity at 3 µM: 3 uM (compounds provided at 10 mM); for Max Resp (signal direction of the dose response): Method 1, Decrease = decreasing P. berghei viability with dose, Increase = increasing signal, Inactive = no dose response
[3] = column 11, read-out: Pb-Luc (P. berghei liver stage), % of control, lower concentration, first repeat
[4] = column 12, read-out: Pb-Luc (P. berghei liver stage), % of control, lower concentration, second repeat
[5] = column 8, read-out: Pb-Luc (P. berghei liver stage), % of control, higher concentration, first repeat
[6] = column 9, read-out: Pb-Luc (P. berghei liver stage), % of control, higher concentration, second repeat

| Structure (SMILES) | viability at 48 h, 1 µM (in vitro) [%] | viability at 48 h, 3 µM (in vitro) [%] | AC50 [1] [µM] | activity at 1 µM [2, 3] [%] | activity at 1 µM [2, 4] [%] | activity at 3 µM [2, 5] [%] | activity at 3 µM [2, 6] [%] | viability at 48 h (in vitro) [%] | Max Resp (signal direction of the dose response) [2] | viability at 66 h (in vitro) [%] |
| --- | --- | --- | --- | --- | --- | --- | --- | --- | --- | --- |
| CC(C)(C)CC(C)(C)c1ccc(O)c(CN2CCN(CCC#N)CC2)c1 [MLS000026875-01] | 112 | 97 | 0.841 | 129 | 117 | 119 | 112 |  |  |  |
| COc1cc(C#Cc2c(-c3cncn3C)n(C)c3ccc(-c4ccc5[nH]ccc5c4)cc23)cc(OC)c1 [MLS002391601-01] | 105 | 102 | 2.37 | 112 | 94 | 111 | 101 |  |  |  |
| CCN1CCN(Cc2ccc(NC(=O)c3cc(NC(=O)c4cnn(-c5ccccc5)c4N)cc(OC)c3)cc2C(F)(F)F)CC1 [MLS000911569-01] | 98 | 106 | 2.11 | 116 | 92 | 116 | 103 |  |  |  |
| CC(C)(C)N1C(=O)c2ccc(C(=O)Nc3ccc(-c4nc5ccccc5[nH]4)cc3)cc2C1=O [MLS000567491-01] | 94 | 108 | 6.68 | 114 | 117 | 141 | 128 |  |  |  |
| CCOC(=O)c1ccc(N=C(S)N2CCN(CCNC3=CC(=O)CC(C)(C)C3)CC2)cc1 [MLS000710946-01] | 96 | 101 | 5.96 | 118 | 96 | 134 | 116 |  |  |  |
| COc1ccc(C)cc1N(C(=O)COc1cccc(F)c1)c1nc2ccccc2s1 [MLS000394477-01] | 91 | 106 | 5.96 | 105 | 106 | 107 | 110 |  |  |  |
| Nc1cc[n+](CC(=O)c2ccc3c(c2)OCCO3)cc1 [MLS000391090-01] | 97.8 |  | 13.3 |  |  |  |  | 97.8 | Inactive |  |
| CCCCCNc1nc2sc3c(c2c(=O)n1-c1cccc(Cl)c1)CCN(C)C3 [MLS000762913-01] | 92 | 105 | 7.5 | 99 | 101 | 72 | 91 |  |  |  |
| CCCOc1ccc(CCc2nnc(S)n2Cc2ccccc2)cc1 [MLS000562311-01] | 122 | 100 | 5.31 | 157 | 149 | 161 | 162 |  |  |  |
| Oc1cc(Cc2ccccc2)cnc1CN1CCCCC1 [MLS000104838-01] | 98 | 105 | 0.944 | 128 | 110 | 97 | 103 |  |  |  |
| O=C(CN1CCN(C(=O)c2ccco2)CC1)Nc1cc(Cl)ccc1Cl [MLS000122513-01] |  |  | 5.96 |  |  |  |  |  | Inactive | 97.6 |
| COc1ccccc1CNCC(O)(c1ccc(Cl)cc1)c1ccc(Cl)cc1 [MLS000325719-01] | 95 | 101 | 1.5 | 101 | 103 | 108 | 98 |  |  |  |
| COc1cccc(NC(=O)CN(C)C(=O)c2ccc(-c3ccc(Cl)cc3)o2)c1 [MLS001142098-01] | 100 | 100 | 4.22 | 146 | 155 | 150 | 187 |  |  |  |
